Calls of active or inactive are those of the source. No cut-off for these calls is given here. Where a SMILES comes first, the peptide text is derived from it. The star is where a group is joined. X1 = [N-]=[N+]=Nc1ccc(C(=O)NCCN2C(=O)CC(*)C2=O)c(O)c1; Biotin = O=C1N[C@H]2[C@H](CS[C@H]2CCCCC(=O)*)N1
Assays:
Type in all cases: cell-based
[1] = target: KiSS-1 receptor (Homo sapiens) (UniProt Q969F8); experiment: Binding affinity to GPR54 in HEK293 cells at 500 nM incubated for 1 hr followed by UV irradiation for 30 secs by Western blot analysis
Chain of KiSS-1 receptor (Homo sapiens) (Q969F8 whole entry): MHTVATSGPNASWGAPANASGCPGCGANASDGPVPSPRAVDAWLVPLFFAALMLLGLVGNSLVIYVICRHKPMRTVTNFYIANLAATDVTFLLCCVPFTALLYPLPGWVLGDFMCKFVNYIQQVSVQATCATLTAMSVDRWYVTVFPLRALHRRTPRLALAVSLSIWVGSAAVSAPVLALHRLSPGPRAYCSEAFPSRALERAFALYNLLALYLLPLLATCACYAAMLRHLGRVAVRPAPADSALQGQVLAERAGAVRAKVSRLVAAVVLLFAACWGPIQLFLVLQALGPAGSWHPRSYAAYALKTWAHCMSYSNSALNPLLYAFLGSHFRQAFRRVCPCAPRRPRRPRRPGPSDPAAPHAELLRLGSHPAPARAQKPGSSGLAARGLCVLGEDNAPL

[2] = target: KiSS-1 receptor (Homo sapiens) (UniProt Q969F8); experiment: Competitive binding affinity to GPR54 in HEK293 cells at 500 nM incubated for 1 hr followed by UV irradiation for 30 secs by Western blot analysis in presence of unlabeled Kp-10
[3] = target: KiSS-1 receptor (Homo sapiens) (UniProt Q969F8); experiment: Binding affinity to GPR54 in HEK293 cells at 500 nM incubated for 1 hr followed by UV irradiation for 30 secs by Western blot analysis in presence of PNGase F

Row | Activity [1] | Activity [2] | Activity [3] | SMILES
1 | inactive | – | – | CC(C)C[C@H](NC(=O)CNC(=O)[C@H](Cc1ccccc1)NC(=O)[C@H](CO)NC(=O)[C@H](CC(N)=O)NC(=O)[C@H](Cc1c[nH]c2ccccc12)NC(=O)[C@H](CSC1CC(=O)N(CCNC(=O)c2ccc(N=[N+]=[N-])cc2O)C1=O)NC(=O)[C@H](Cc1ccc(O)cc1)NC(=O)[C@H](CC(N)=O)NC(=O)[C@@H]1CCCN1C(=O)[C@H](CC(C)C)NC(=O)[C@H](CC(=O)O)NC(=O)CCCC[C@@H]1SC[C@@H]2NC(=O)N[C@@H]21)C(=O)N[C@@H](CCCNC(=N)N)C(=O)N[C@@H](Cc1ccccc1)C(N)=O (some centres undefined) (Biotin-DLPNYC(X1)WNSFGLRF-NH2)
2 | inactive | – | – | CC(C)C[C@H](NC(=O)CNC(=O)[C@H](Cc1ccccc1)NC(=O)[C@H](CO)NC(=O)[C@H](CC(N)=O)NC(=O)[C@H](Cc1c[nH]c2ccccc12)NC(=O)[C@H](CC(N)=O)NC(=O)[C@H](CSC1CC(=O)N(CCNC(=O)c2ccc(N=[N+]=[N-])cc2O)C1=O)NC(=O)[C@H](CC(N)=O)NC(=O)[C@@H]1CCCN1C(=O)[C@H](CC(C)C)NC(=O)[C@H](CC(=O)O)NC(=O)CCCC[C@@H]1SC[C@@H]2NC(=O)N[C@@H]21)C(=O)N[C@@H](CCCNC(=N)N)C(=O)N[C@@H](Cc1ccccc1)C(N)=O (some centres undefined) (Biotin-DLPNC(X1)NWNSFGLRF-NH2)
3 | – | inactive | inactive | CC(C)C[C@H](NC(=O)CNC(=O)[C@H](Cc1ccccc1)NC(=O)[C@H](CO)NC(=O)[C@H](CC(N)=O)NC(=O)[C@H](CSC1CC(=O)N(CCNC(=O)c2ccc(N=[N+]=[N-])cc2O)C1=O)NC(=O)[C@H](CC(N)=O)NC(=O)[C@H](Cc1ccc(O)cc1)NC(=O)[C@H](CC(N)=O)NC(=O)[C@@H]1CCCN1C(=O)[C@H](CC(C)C)NC(=O)[C@H](CC(=O)O)NC(=O)CCCC[C@@H]1SC[C@@H]2NC(=O)N[C@@H]21)C(=O)N[C@@H](CCCNC(=N)N)C(=O)N[C@@H](Cc1ccccc1)C(N)=O (some centres undefined) (Biotin-DLPNYNC(X1)NSFGLRF-NH2)
